Laboratory results taken from US20110301142A1, “ANTAGONISTS OF LYSOPHOSPHATIDIC ACID RECEPTORS” (priority 2008, published 2011).

How the values were obtained:
human LPA1 = molecular target: T1, human LPA1 (Homo sapiens, UniProt Q92633); experiment: LPA1 calcium flux assay (HLPA1 Ca Flux); format: cell-based; conditions: Human LPA1 expressing CHO cells, stimulated with 10 nM LPA
T1 construct: the full-length cDNA for human LPA1 was obtained by PCR of the reverse transcription reaction; expressed in transfected cells
T1 sequence (Q92633 whole entry): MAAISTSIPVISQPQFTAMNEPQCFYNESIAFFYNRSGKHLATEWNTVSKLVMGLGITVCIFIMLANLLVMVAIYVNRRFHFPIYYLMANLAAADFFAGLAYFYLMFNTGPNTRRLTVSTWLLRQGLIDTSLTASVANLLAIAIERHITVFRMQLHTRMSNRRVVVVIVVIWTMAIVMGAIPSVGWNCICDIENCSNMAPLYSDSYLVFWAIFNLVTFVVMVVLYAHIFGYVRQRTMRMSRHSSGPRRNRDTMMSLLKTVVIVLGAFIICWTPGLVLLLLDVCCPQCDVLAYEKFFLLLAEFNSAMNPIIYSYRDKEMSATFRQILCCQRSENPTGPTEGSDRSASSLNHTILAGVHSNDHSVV
Protocol: A 1.1 kb cDNA encoding the human LPA1 receptor was cloned from human lung. Human lung RNA (Clontech Laboratories, Inc. USA) was reverse transcribed using the RETROscript kit (Ambion, Inc.) and the full-length cDNA for human LPA1 was obtained by PCR of the reverse transcription reaction. The nucleotide sequence of the cloned human LPA1 was determined by sequencing and confirmed to be identical to the published human LPA1 sequence (An et al. Biochem. Biophys. Res. Commun. 231:619 (1997). The cDNA was cloned into the pcDNAS/FRT expression plasmid and transfected in CHO cells using lipofectamine 2000 (Invitrogen Corp., USA). Clones stably expressing human LPA1 were selected using hygromycin and identified as cells that show Ca-influx in response to LPA.
(§1) Human LPA1 or LPA3 expressing CHO cells are seeded at 20,000-45,000 cells per well in a 96-well poly-D-lysine coated plate one or two days before the assay. Prior to the assay, the cells are washed once with PBS and then cultured in serum-free media overnight. On the day of the assay, a calcium indicator dye (Calcium 4, Molecular Devices) in assay buffer (HBSS with Ca^2+ and Mg^2+ and containing 20 mM Hepes and 0.3% fatty-acid free human serum albumin) is added to each well and incubation continued for 1 hour at 37° C. 10 μl of test compounds in 2.5% DMSO are added to the cells and incubation continued at room temperature for 30 minutes. Cells are the stimulated by the addition of 10 nM LPA and intracellular Ca^2+ measured using the Flexstation 3 (Molecular Devices). IC50s are determined using Graphpad prism analysis of drug titration curves.

human LPA3 = molecular target: T2, human LPA3 (Homo sapiens, UniProt Q9UBY5); experiment: LPA3 calcium flux assay; format: cell-based; conditions: Human LPA3 expressing CHO cells, stimulated with 10 nM LPA; read-out: HLPA3 Ca Flux IC50
T2 construct: The full-length cDNA fragment for human LPA3 was obtained by PCR from the vector; expressed in transfected cells; cDNA from the Missouri S&T cDNA Resource Center
T2 sequence (Q9UBY5 1-353): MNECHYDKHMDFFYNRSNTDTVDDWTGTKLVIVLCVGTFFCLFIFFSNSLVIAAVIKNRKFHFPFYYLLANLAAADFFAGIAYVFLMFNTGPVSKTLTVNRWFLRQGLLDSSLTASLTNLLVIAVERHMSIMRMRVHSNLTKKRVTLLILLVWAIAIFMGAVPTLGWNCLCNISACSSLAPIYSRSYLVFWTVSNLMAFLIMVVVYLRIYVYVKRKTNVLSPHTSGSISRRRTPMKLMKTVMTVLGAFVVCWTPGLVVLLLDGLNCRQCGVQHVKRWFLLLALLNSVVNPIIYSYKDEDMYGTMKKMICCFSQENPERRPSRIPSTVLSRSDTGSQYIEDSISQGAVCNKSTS
Protocol: A vector containing the human LPA3 receptor cDNA was obtained from the Missouri S&T cDNA Resource Center (www.cdna.org). The full-length cDNA fragment for human LPA3 was obtained by PCR from the vector. The nucleotide sequence of the cloned human LPA3 was determined by sequencing and confirmed to be identical to the published human LPA3 sequence (NCBI accession number NM 012152). The cDNA was cloned into the pcDNA5/FRT expression plasmid and transfected in CHO cells using lipofectamine 2000 (Invitrogen Corp., USA). Clones stably expressing human LPA3 were selected using hygromycin and identified as cells that show Ca-influx in response to LPA.
as §1

Row | IC50 (human LPA1) [nM] | IC50 (human LPA3) [nM] | Structure (SMILES)
1 | 1000 to 50000 | 1000 to 50000 | Cc1noc(-c2cccc(-c3cccc(C(=O)O)c3)c2)c1NC(=O)OC(C)c1ccccc1Cl (stereo not drawn) [Compound 1-31, 3′-{4-[1-(2-Chloro-phenyl)-ethoxycarbonylamino]-3-methyl-isoxazol-5-yl}-biphenyl-3-carboxylic acid]
2 | < 300 | > 50000 | Cc1noc(-c2cccc(C3=CCC(C(=O)O)CC3)c2)c1NC(=O)OC(C)c1ccccc1Cl (stereo not drawn) [Compound 1-45, 4-(3-{4-[1-(2-Chloro-phenyl)-ethoxycarbonylamino]-3-methyl-isoxazol-5-yl}-phenyl)-cyclohex-3-enecarboxylic acid]
3 | < 300 | > 50000 | Cc1noc(-c2ccc(-c3ccc(CC(=O)O)cc3)nc2)c1NC(=O)OC(C)c1ccccc1F (stereo not drawn) [Compound 1-48]
4 | 300 to 1000 | 1000 to 50000 | COc1ccc(CC(=O)O)cc1-c1ccc(-c2onc(C)c2NC(=O)OC(C)c2ccccc2Cl)cc1 (stereo not drawn) [Compound 1-49, (4′-{4-[1-(2-Chloro-phenyl)-ethoxycarbonylamino]-3-methyl-isoxazol-5-yl}-6-methoxy-biphenyl-3-yl)-acetic acid]
5 | < 300 | 1000 to 50000 | Cc1noc(-c2ccc(-c3cc(C(=O)O)ccn3)cc2)c1NC(=O)OC(C)c1ccccc1Cl (stereo not drawn) [Compound 1-50, 2-(4-{4-[1-(2-Chloro-phenyl)-ethoxycarbonylamino]-3-methyl-isoxazol-5-yl}-phenyl)-isonicotinic acid]
6 | < 300 | 1000 to 50000 | Cc1noc(-c2ccc(-c3ccc(C(=O)O)cc3)cc2)c1NC(=O)OC(C)c1ccccc1Cl (stereo not drawn) [Compound 1-51, 4′-{4-[1-(2-Chloro-phenyl)-ethoxycarbonylamino]-3-methyl-isoxazol-5-yl}-biphenyl-4-carboxylic acid]
7 | < 300 | 1000 to 50000 | Cc1noc(-c2ccc(-c3cccc(C(=O)O)n3)cc2)c1NC(=O)OC(C)c1ccccc1Cl (stereo not drawn) [Compound 1-53, 6-(4-{4-[1-(2-Chloro-phenyl)-ethoxycarbonylamino]-3-methyl-isoxazol-5-yl}-phenyl)-pyridine-2-carboxylic acid]
8 | < 300 | 1000 to 50000 | Cc1noc(-c2ccc(-c3ccc(C(=O)O)cn3)cc2)c1NC(=O)OC(C)c1ccccc1Cl (stereo not drawn) [Compound 1-54, 6-(4-{4-[1-(2-Chloro-phenyl)-ethoxycarbonylamino]-3-methyl-isoxazol-5-yl}-phenyl)-nicotinic acid]

Continued, molecule first:

Row | Structure (SMILES) | IC50 (human LPA1) [nM] | IC50 (human LPA3) [nM]
9 | Cc1noc(-c2ccc(Cc3cccc(C(=O)O)c3)cc2)c1NC(=O)OC(C)c1ccccc1Cl (stereo not drawn) [Compound 1-5, 3-(4-{4-[1-(2-Chloro-phenyl)-ethoxycarbonylamino]-3-methyl-isoxazol-5-yl}-benzyl)-benzoic acid] | < 300 | 1000 to 50000
10 | COc1ccc(CC(=O)O)cc1Cc1ccc(-c2onc(C)c2NC(=O)OC(C)c2ccccc2Cl)cc1 (stereo not drawn) [Compound 1-7, [3-(4-{4-[1-(2-Chloro-phenyl)-ethoxycarbonylamino]-3-methyl-isoxazol-5-yl}-benzyl)-4-methoxy-phenyl]-acetic acid] | 300 to 1000 | 1000 to 50000
11 | Cc1noc(-c2ccc(Cn3cc(C(=O)O)cn3)cc2)c1NC(=O)OC(C)c1ccccc1Cl (stereo not drawn) [Compound 1-9, 1-(4-{4-[1-(2-Chloro-phenyl)-ethoxycarbonylamino]-3-methyl-isoxazol-5-yl}-benzyl)-1H-pyrazole-4-carboxylic acid] | < 300 | 1000 to 50000
12 | Cc1noc(-c2ccc(COc3cccc(C(=O)O)c3)cc2)c1NC(=O)OC(C)c1ccccc1Cl (stereo not drawn) [Compound 1-12, 3-(4-{4-[1-(2-Chloro-phenyl)-ethoxycarbonylamino]-3-methyl-isoxazol-5-yl}-benzyloxy)-benzoic acid] | < 300 | 1000 to 50000
13 | Cc1noc(-c2ccc(Cc3ccc(C(=O)O)s3)cc2)c1NC(=O)OC(C)c1ccccc1Cl (stereo not drawn) [Compound 1-15, 5-(4-{4-[1-(2-Chloro-phenyl)-ethoxycarbonylamino]-3-methyl-isoxazol-5-yl}-benzyl)-thiophene-2-carboxylic acid] | < 300 | 1000 to 50000
14 | Cc1noc(-c2ccc(CSc3ccc(CC(=O)O)cc3)cc2)c1NC(=O)OC(C)c1ccccc1Cl (stereo not drawn) [Compound 1-17, [4-(4-{4-[1-(2-Chloro-phenyl)-ethoxycarbonylamino]-3-methyl-isoxazol-5-yl}-benzylsulfanyl)-phenyl]-acetic acid] | < 300 | 1000 to 50000
15 | Cc1noc(-c2ccc(CSc3ccccc3CC(=O)O)cc2)c1NC(=O)OC(C)c1ccccc1Cl (stereo not drawn) [Compound 1-19, [2-(4-{4-[1-(2-Chloro-phenyl)-ethoxycarbonylamino]-3-methyl-isoxazol-5-yl}-benzylsulfanyl)-phenyl]acetic acid] | < 300 | 1000 to 50000
16 | Cc1noc(-c2ccc(Cc3ccc(CC(=O)O)cc3)cc2)c1NC(=O)OC(C)c1ccccc1Cl (stereo not drawn) [Compound 1-20, [4-(4-{4-[1-(2-Chloro-phenyl)-ethoxycarbonylamino]-3-methyl-isoxazol-5-yl}-benzyl)-phenyl]-acetic acid] | < 300 | 1000 to 50000
17 | Cc1noc(-c2ccc(Cc3cccc(CC(=O)O)c3)cc2)c1NC(=O)OC(C)c1ccccc1Cl (stereo not drawn) [Compound 1-21, [3-(4-{4-[1-(2-Chloro-phenyl)-ethoxycarbonylamino]-3-methyl-isoxazol-5-yl}-benzyl)-phenyl]acetic acid] | < 300 | 1000 to 50000
18 | Cc1noc(-c2ccc(-c3ccc(CC(=O)O)cc3)cc2)c1NC(=O)OC(C)c1ccccc1C(F)(F)F (stereo not drawn) [Compound 1-23, (4′-{3-Methyl-4-[1-(2-trifluoromethyl-phenyl)-ethoxycarbonylamino]-isoxazol-5-yl}-biphenyl-4-yl)-acetic acid] | < 300 | 1000 to 50000
19 | Cc1noc(-c2ccc(-c3ccc(CC(=O)O)cc3)cc2)c1NC(=O)OC(C)c1cccc(C(F)(F)F)c1 (stereo not drawn) [Compound 1-24, (4′-{3-Methyl-4-[1-(3-trifluoromethyl-phenyl)-ethoxycarbonylamino]-isoxazol-5-yl}-biphenyl-4-yl)-acetic acid] | 300 to 1000 | 1000 to 50000
20 | Cc1noc(-c2ccc(-c3ccc(CC(=O)O)cc3)cc2)c1NC(=O)OC(C)c1ccc(Cl)cc1Cl (stereo not drawn) [Compound 1-25, (4′-{4-[1-(2,4-Dichloro-phenyl)-ethoxycarbonylamino]-3-methyl-isoxazol-5-yl}-biphenyl-4-yl)-acetic acid] | < 300 | 1000 to 50000
21 | Cc1noc(-c2ccc(-c3ccc(CC(=O)O)cc3)cc2)c1NC(=O)OC(C)c1ccccc1F (stereo not drawn) [Compound 1-26, (4′-{4-[1-(2-Fluoro-phenyl)-ethoxycarbonylamino]-3-methyl-isoxazol-5-yl}-biphenyl-4-yl)-acetic acid] | < 300 | 1000 to 50000
22 | Cc1noc(-c2ccc(-c3ccc(CC(=O)O)cc3)cc2)c1NC(=O)OC(C)c1cccc(Br)c1 (stereo not drawn) [Compound 1-27, (4′-{4-[1-(3-Bromo-phenyl)-ethoxycarbonylamino]-3-methyl-isoxazol-5-yl}-biphenyl-4-yl)-acetic acid] | < 300 | 1000 to 50000
23 | COc1ccccc1C(C)OC(=O)Nc1c(C)noc1-c1ccc(-c2ccc(CC(=O)O)cc2)cc1 (stereo not drawn) [Compound 1-28, (4′-{4-[1-(2-Methoxy-phenyl)-ethoxycarbonylamino]-3-methyl-isoxazol-5-yl}-biphenyl-4-yl)-acetic acid] | < 300 | > 50000
24 | COc1ccc(CC(=O)O)cc1-c1cccc(-c2onc(C)c2NC(=O)OC(C)c2ccccc2Cl)c1 (stereo not drawn) [Compound 1-30, (3′-{4-[1-(2-Chloro-phenyl)-ethoxycarbonylamino]-3-methyl-isoxazol-5-yl}-6-methoxy-biphenyl-3-yl)-acetic acid] | 300 to 1000 | 1000 to 50000
